These results are taken from US20100160454A1, “ANTIMICROBIAL AGENTS, COMPOSITIONS AND PRODUCTS CONTAINING THE SAME, AND METHODS OF USING THE COMPOSITIONS AND PRODUCTS” (Eastman Chemical Company, priority 2008, published 2010).

Structures are written as SMILES.

For this assay, the system named is Candida albicans Wild type. Kind of assay: Microbiological challenge testing in BPW broth, graded subculture counts. The assay is classed as cell-based. Conditions: C. albicans. As to the method: The microorganisms in the table below were used in challenge tests. They were either ATCC (American Type Culture Collection) or “wild type” as indicated. Wild type organisms were problematic organisms previously isolated from chemical products.
All of the microorganisms were grown in Tryptose Soy Broth (TSB), DIFCO™ available from Becton, Dickinson and Company, containing 1% dextrose. Candida albicans and Aspergillus niger, were incubated at 22° C.+/−2° C. for at least 96 hours. All bacteria were incubated at 35° C.+/−2° C. in a humidified incubator for at least 96 hours.
Candida albicans and Aspergillus niger were also grown on Sabouraud Dextrose Agar (SABD) at 22° C. for 7 to 14 days or until full sporulation was achieved.
The following procedure was followed to determine the amount of each challenge material (inoculum broth) needed to produce a 10^8 CFU/mL challenge, which is equivalent to a final test-sample microbial concentration of 10^5 to 10^6 CFU/mL (CFU=colony forming units).
Using a sterile pipette, 1 mL of the growth from each TSB culture was transferred into tubes of 9 mL buffered water (pH 7.2 phosphate buffer) and mixed thoroughly. This was repeated to make serial 1:10 dilutions. Then, 0.1 mL of each sample and dilution was inoculated onto agar plates to produce the equivalent of a further 1:10 dilution. (C. albicans and A. niger were inoculated onto SABD and bacteria were inoculated onto Plate Count Agar (PCA), DIFCO™ available from Becton, Dickinson and Company.) (The normal volume plated for most samples was 0.1 mL. Some samples that could be very low in micro-organisms (high dilutions) were plated using 0.5 mL of inoculum, in order to produce reproducible counts.) The samples were distributed on the plates using the spread-plate technique. The spread-plate technique is carried out by spreading the sample over the entire plate surface using a sterile spreading rod while rotating the plate with a rotary auto-plater. After the inoculum was absorbed completely by the agar, each plate was inverted and incubated (fungi at 22° C.+/−2° C. and bacteria at 35° C.+/−2° C.).
After incubation for at least 48 hours, colonies that had developed on the agar plates were counted (CFU) and recorded with the corresponding dilution. If counting had to be delayed temporarily, plates were refrigerated, preferably no more than 24 hours, until they could be counted. The number of CFU/mL was determined by multiplying the plate count by the dilution factor of the plate counted.
Turbidity in Nepholemetric Turbidity Units (NTU) was measured for each serial dilution using the HF-Micro 100 Model Turbidimeter. For each microorganism, the plate counts were compared to the turbidity readings.
On the day of challenge, the Candida albicans inoculum broth was poured through nonabsorbent sterile gauze and centrifuged. The […] was then diluted with buffered water (pH 7.2 phosphate buffer) until the desired turbidity was reached. Using a hemocytometer, a determination was made whether the challenge contained the desired concentration. Dilutions were made through 1.0×10^8 and three SABD spread plates were inoculated with 0.1 mL of each dilution. The plates were incubated for at least 48 hours and challenge counts were confirmed.
Control substrates (“broth alone”) were prepared for each microorganism separately in triplicate by adding 13.5 mL of Buffered Peptone Water broth (BPW) containing 1% dextrose to each 20-mL glass tube, then adding 1.5 mL challenge material to produce a final concentration at time zero of 10^5 to 10^6 CFU/mL and a total volume of 15 mL.

`CC1(C)C(O)C(C)(C)C1O` (stereo not drawn) [TMCBD, 2,2,4,4-tetramethyl-1,3-cyclobutanediol]: the Grade reads like this: (0.5% (wt/vol), 3 day) 4 (1000 to 10,000 colonies countable (thus 10,000 CFU/mL to 100,000 CFU/mL)); (0.5% (wt/vol), 14 day) 4 (1000 to 10,000 colonies countable (thus 10,000 CFU/mL to 100,000 CFU/mL)); (0.5% (wt/vol), 30 day) 4 (1000 to 10,000 colonies countable (thus 10,000 CFU/mL to 100,000 CFU/mL)); (1.25% (wt/vol), 3 day) 3 (100 to 1000 colonies (thus 1000 to 10,000 CFU/mL)); (1.25% (wt/vol), 14 day) 4 (1000 to 10,000 colonies countable (thus 10,000 CFU/mL to 100,000 CFU/mL)); (1.25% (wt/vol), 30 day) 4 (1000 to 10,000 colonies countable (thus 10,000 CFU/mL to 100,000 CFU/mL)). The Grade (2.5% (wt/vol), 3 day) was 3 (100 to 1000 colonies (thus 1000 to 10,000 CFU/mL)); the Grade (2.5% (wt/vol), 14 day) is on record as 2 (52 to 100 colonies counted (thus 520 to 1000 CFU/mL)); the Grade (2.5% (wt/vol), 30 day) was 2 (52 to 100 colonies counted (thus 520 to 1000 CFU/mL)); the Grade (5.0% (wt/vol), 3 day) was 2 (52 to 100 colonies counted (thus 520 to 1000 CFU/mL)); the Grade (5.0% (wt/vol), 14 day) worked out at 0; the Grade (5.0% (wt/vol), 30 day) was 0.

As for `CCCCOCCO` [EB, 2-butoxyethanol], the Grade reads like this: (2.5% (wt/vol), 3 day) 4 (1000 to 10,000 colonies countable (thus 10,000 CFU/mL to 100,000 CFU/mL)); (2.5% (wt/vol), 14 day) 4 (1000 to 10,000 colonies countable (thus 10,000 CFU/mL to 100,000 CFU/mL)); (2.5% (wt/vol), 30 day) 4 (1000 to 10,000 colonies countable (thus 10,000 CFU/mL to 100,000 CFU/mL)); (5.0% (wt/vol), 3 day) 2 (52 to 100 colonies counted (thus 520 to 1000 CFU/mL)); (5.0% (wt/vol), 14 day) 0; (5.0% (wt/vol), 30 day) 0.

Turning to `O=C([O-])CN(CCN(CC(=O)[O-])CC(=O)O)CC(=O)O.[Na+].[Na+]` [EDTA, Na2EDTA], the Grade (0.5% (wt/vol), 3 day) is recorded as 4 (1000 to 10,000 colonies countable (thus 10,000 CFU/mL to 100,000 CFU/mL)); the Grade (0.5% (wt/vol), 14 day) was 5 (More than 10,000 colonies estimated (thus more than 100,000 CFU/mL)); the Grade (0.5% (wt/vol), 30 day) is recorded as 5 (More than 10,000 colonies estimated (thus more than 100,000 CFU/mL)); the Grade (1.25% (wt/vol), 3 day) was 4 (1000 to 10,000 colonies countable (thus 10,000 CFU/mL to 100,000 CFU/mL)); the Grade (1.25% (wt/vol), 14 day) is listed as 4 (1000 to 10,000 colonies countable (thus 10,000 CFU/mL to 100,000 CFU/mL)); the Grade (1.25% (wt/vol), 30 day) is 4 (1000 to 10,000 colonies countable (thus 10,000 CFU/mL to 100,000 CFU/mL)). The Grade reads like this: (2.5% (wt/vol), 3 day) 2 (52 to 100 colonies counted (thus 520 to 1000 CFU/mL)); (2.5% (wt/vol), 14 day) 2 (52 to 100 colonies counted (thus 520 to 1000 CFU/mL)); (2.5% (wt/vol), 30 day) 2 (52 to 100 colonies counted (thus 520 to 1000 CFU/mL)); (5.0% (wt/vol), 3 day) 1 (0 to 51 colonies counted (thus 10 to 510 CFU/mL based on 0.1-mL sample)); (5.0% (wt/vol), 14 day) 0; (5.0% (wt/vol), 30 day) 0.

`OCC1CCCC(CO)C1` (stereo not drawn) [1,3-CHDM, 1,3-cyclohexanedimethanol]: the Grade is, setting by setting: (0.5% (wt/vol), 3 day) 4 (1000 to 10,000 colonies countable (thus 10,000 CFU/mL to 100,000 CFU/mL)); (0.5% (wt/vol), 14 day) 4 (1000 to 10,000 colonies countable (thus 10,000 CFU/mL to 100,000 CFU/mL)); (0.5% (wt/vol), 30 day) 4 (1000 to 10,000 colonies countable (thus 10,000 CFU/mL to 100,000 CFU/mL)); (1.25% (wt/vol), 3 day) 4 (1000 to 10,000 colonies countable (thus 10,000 CFU/mL to 100,000 CFU/mL)); (1.25% (wt/vol), 14 day) 4 (1000 to 10,000 colonies countable (thus 10,000 CFU/mL to 100,000 CFU/mL)); (1.25% (wt/vol), 30 day) 4 (1000 to 10,000 colonies countable (thus 10,000 CFU/mL to 100,000 CFU/mL)). Further, the Grade (2.5% (wt/vol), 3 day) was 4 (1000 to 10,000 colonies countable (thus 10,000 CFU/mL to 100,000 CFU/mL)); the Grade (2.5% (wt/vol), 14 day) is 4 (1000 to 10,000 colonies countable (thus 10,000 CFU/mL to 100,000 CFU/mL)); the Grade (2.5% (wt/vol), 30 day) is listed as 4 (1000 to 10,000 colonies countable (thus 10,000 CFU/mL to 100,000 CFU/mL)); the Grade (5.0% (wt/vol), 3 day) is 0; the Grade (5.0% (wt/vol), 14 day) was 2 (52 to 100 colonies counted (thus 520 to 1000 CFU/mL)); the Grade (5.0% (wt/vol), 30 day) is reported as 3 (100 to 1000 colonies (thus 1000 to 10,000 CFU/mL)).

As for `OCC1CCCCC1CO` (stereo not drawn) [1,2-CHDM, 1,2-cyclohexanedimethanol], the Grade is, setting by setting: (0.5% (wt/vol), 3 day) 4 (1000 to 10,000 colonies countable (thus 10,000 CFU/mL to 100,000 CFU/mL)); (0.5% (wt/vol), 14 day) 4 (1000 to 10,000 colonies countable (thus 10,000 CFU/mL to 100,000 CFU/mL)); (0.5% (wt/vol), 30 day) 4 (1000 to 10,000 colonies countable (thus 10,000 CFU/mL to 100,000 CFU/mL)); (1.25% (wt/vol), 3 day) 4 (1000 to 10,000 colonies countable (thus 10,000 CFU/mL to 100,000 CFU/mL)); (1.25% (wt/vol), 14 day) 4 (1000 to 10,000 colonies countable (thus 10,000 CFU/mL to 100,000 CFU/mL)); (1.25% (wt/vol), 30 day) 4 (1000 to 10,000 colonies countable (thus 10,000 CFU/mL to 100,000 CFU/mL)). In addition, the Grade was 0 (2.5% (wt/vol), 3 day); 0 (2.5% (wt/vol), 14 day); 0 (2.5% (wt/vol), 30 day); 0 (5.0% (wt/vol), 3 day); 0 (5.0% (wt/vol), 14 day); 0 (5.0% (wt/vol), 30 day).
